In EP2805714B1, “STABLE PHARMACEUTICAL COMPOSITION COMPRISING AMORPHOUS ROSUVASTATIN CALCIUM” (Antibiotice S.A., priority 2013, dated 2014):

Experiment: Stability test according to ICH guidelines, related substances by in-house HPLC method
Format: physicochemical
Details: rosuvastatin calcium amorphous active substance (raw material)
Description: We performed stability tests on these tablet compositions, according to the method described in ICH guidelines. The tablets were packed in opaque OPA/Al/PVC-Al blisters with very low oxygen and humidity transmission rates. Using a HPLC in house method, we measured the level of lactone and total impurities formed after a period of storage of 12 months at 25°C/60%RH (normal conditions, A1) and of 6 months at 40°C/[…]. The results were compared with those obtained for the tablets at the moment of release (TO) and those obtained for the rosuvastatin calcium amorphous active substance (Table 2). Table 2. Related substances values for the tested formulations

Structure (SMILES): CC(C)c1nc(N(C)S(C)(=O)=O)nc(-c2ccc(F)cc2)c1/C=C/[C@@H](O)C[C@@H](O)CC(=O)[O-].CC(C)c1nc(N(C)S(C)(=O)=O)nc(-c2ccc(F)cc2)c1/C=C/[C@@H](O)C[C@@H](O)CC(=O)[O-].[Ca+2] [RC amorphous, bis [(E)-7-[4-(4-fluorophenyl)-6-isopropyl-2-[methyl(methylsulfonyl)amino]pyrimidin-5-yl]-(3R,5S)-dihydroxyhept-6-enoic acid] calcium salt]
- Lactone, %: 0.010%
- Total impurities, %: 0.150%
